Source: patent US8338426B2, “Piperazinyl derivatives useful as modulators of the neuropeptide Y2 receptor” (Janssen Pharmaceutica NV, priority 2007, dated 2012)

Columns and labels:
[1] = target: T1, human Y2 receptor (Homo sapiens, UniProt P49146); assay: [35S]GTPγS binding assay in KAN-Ts cells; format: biochemical
T1 construct: KAN-Ts endogenously expressing Y2 receptors were used; endogenous in cells; host or cells: KAN-Ts cells
T1 sequence (P49146 1-381): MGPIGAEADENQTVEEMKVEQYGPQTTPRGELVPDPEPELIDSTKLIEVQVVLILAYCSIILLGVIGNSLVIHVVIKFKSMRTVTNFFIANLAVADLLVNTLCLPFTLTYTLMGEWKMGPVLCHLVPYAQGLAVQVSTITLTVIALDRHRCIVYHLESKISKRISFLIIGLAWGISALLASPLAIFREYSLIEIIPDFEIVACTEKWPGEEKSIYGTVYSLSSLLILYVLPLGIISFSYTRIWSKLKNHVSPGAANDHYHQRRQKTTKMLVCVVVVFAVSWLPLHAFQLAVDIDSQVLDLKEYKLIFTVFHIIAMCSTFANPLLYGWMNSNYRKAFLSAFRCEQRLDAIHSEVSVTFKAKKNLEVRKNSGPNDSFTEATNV
Procedure: [^35S] GTPγS binding assay in KAN-Ts cells was performed as described in Bonaventure, P., D. Nepomuceno, C. Mazur, B. Lord, D. A. Rudolph, J. A. Jablonowski, N. I. Carruthers and T. W. Lovenberg, J Pharmacol Exp Ther. 2004, 308, 1130.
Assay mixtures (150 were preincubated with compounds for 30 minutes at ambient temperature. Then, 50 μl of [^35S]GTPγS in assay buffer was added to a final concentration of 200 pM and the assay mixtures were incubated for 1 hour at ambient temperature. Reactions were terminated by rapid filtration thought GF/C filters. Filters were washed twice with ice cold 50 mM Tris-HCl, pH 7.4 containing 10 mM MgCl2. Basal [^35S]GTPγS was measured in the absence of compounds. In initial experiments, nonspecific binding was measured in the presence of 100 μM GTPgS. This nonspecific binding never exceeded 10% of basal binding and was thus not subtracted from experimental data. Stimulation of [^35S]GTPγS was determined as percentage over basal and was calculated as one hundred times the difference between stimulated and basal binding (in cpm). […] Data are expressed as mean±S.E.M.
The antagonistic properties of the compound of formula (A) were evaluated in a [^35S]GTPγS binding assay in KAN-Ts cells endogenously expressing human Y2 receptors. […]

[2] = target: T2, NPY Y2 receptor (Homo sapiens, UniProt P49146); assay: CEREP binding panel, NPY Y2
T2 sequence (P49146 1-381): T1 sequence (P49146 1-381)
Procedure: (§1) The selectivity of the compound of formula (A) was further evaluated in a large variety of ion-channels, transporters and receptor-binding assays including the Y1 receptor subtype. These assays were performed by CEREP (Celles L'Evescault, France; www.cere.com<http//www.cerea.com>). Selectivity vs the Y5 receptor subtype was evaluated as described in Bonaventure, P., D. Nepomuceno, C. Mazur, B. Lord, D. A. Rudolph, J. A. Jablonowski, N. I. Carruthers and T. W. Lovenberg, J Pharmacol Exp Ther. 2004, 308, 1130.
(§2) The compound of formula (A) was assayed by binding in a panel of 50 receptors, ion channels and transporters assays (CEREP) including adenosine (A1,A2A,A3), adrenergic (α1, α2, β1), angiotensin (AT1), dopamine (D1, D2), bradykinin (B2), cholecystokinin (CCKA), galanin (GAL2), melatonin ML1), muscarinic (M1, M2, M3), neurotensin (NTS), neurokinin (NK2, NK3), NPY (Y1, Y2) opiate (m, k, d), serotonin (5-HT1A, 5-HT1B, 5-HT2A, 5-HT3, 5-HT5A, 5-HT6, 5-HT7), somatostatin, vasopressin (V1a), norepinephrine transporter, dopamine transporter and ion channels (sodium, calcium, potassium and chloride).

[3] = target: T3, NPY Y1 receptor (Homo sapiens, UniProt P25929); assay: CEREP binding panel, NPY Y1
T3 construct: CEREP
T3 sequence (P25929 1-384): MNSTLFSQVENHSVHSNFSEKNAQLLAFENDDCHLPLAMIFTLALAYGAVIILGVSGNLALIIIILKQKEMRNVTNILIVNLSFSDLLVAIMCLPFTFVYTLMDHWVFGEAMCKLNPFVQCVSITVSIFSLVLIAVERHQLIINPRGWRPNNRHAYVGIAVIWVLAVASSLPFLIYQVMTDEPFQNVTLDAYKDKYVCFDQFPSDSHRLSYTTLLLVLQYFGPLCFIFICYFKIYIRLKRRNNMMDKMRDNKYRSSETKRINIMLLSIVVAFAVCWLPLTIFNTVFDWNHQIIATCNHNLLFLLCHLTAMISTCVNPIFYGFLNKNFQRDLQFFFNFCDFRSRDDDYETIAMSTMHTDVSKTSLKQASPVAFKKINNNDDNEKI
Procedure: as §1, §2

[4] = test system: ethanol-induced hyperactivity; assay: Ethanol-induced hyperactivity (locomotor activity) in c57bl6/j mice; format: in vivo; settings: 10 mg/kg i.p.
Excerpt: C57bl6/j mice readily self-administer ethanol and these mice are sensitive to the stimulant effects of alcohol. NPY immunoreactivity is reduced in these mice. In addition, mice lacking NPY drink more ethanol than wild type mice; whereas, mice over-expressing NPY have reduced preference for ethanol. Experiments were designed to test the hypothesis that selective blockade of Y2 receptors by the compound of formula (A) decreases ethanol stimulant effects presumable by enhancing NPY function in the brain.
Locomotor activity was measured with a Hamilton Kinder motor monitor infrared beam apparatus equipped with a SmartFrame cage rack throughout which basic movements were recorded. Experiments assessed the effects of the compound of formula (A) on ethanol-induced hyperactivity in 8-10-week old c57bl6/j mice and were conducted using a between subject design. Vehicle (10 ml/kg, i.p.) or the compound of formula (A) (10 mg/kg, i.p.) was administered 15 min prior to the beginning of the session. Thereafter, animals received an acute injection of either vehicle (10 ml/kg, i.p.) or ethanol (1 g/kg, i.p), then they were immediately placed in the apparatus and locomotor activity was evaluated for 15 min. Data were analyzed with two-way repeated ANOVA using Graph Pad.

`CCN(CC)C(=O)C(c1ccccc1)N1CCN(c2ccc(NC(=O)c3ccccc3-c3cccnc3)cc2F)CC1` (racemic) [Cmpd (A), N-{4-[4-(Diethylcarbamoyl-phenyl-methyl)-piperazin-1-yl]-3-fluoro-phenyl}-2-pyridin-3-yl-benzamide] was tested, and the IC50 ([1]; read-out: hY2 pIC50corr (converted)) was 0.0501 nM, the “effect of compound by itself on [35S]GTPγS binding” value ([1]; up to 10 μM, no PYY) was “did not affect” and the inhibition at 1 µM [2] was 100%. For the same molecule, the inhibition at 1 µM [3] was 10%, the “effect on ethanol-induced hyperactivity” value ([4]; 15 min before ethanol 1 g/kg i.p.) was “significantly reduced ethanol hyperactivity” and the “effect on locomotor activity by itself” value ([4]; no ethanol) was “did not change locomotor activity by itself”.
